Reference: PubChem BioAssay (NCI)
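Grown in 96-well plates, cells were treated for 48 hours with each compound at five concentrations. Insufficient inhibition: endpoint recorded as highest concentration tested. TGI denotes the concentration required for complete inhibition of growth.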

Experiments:
Test in all cases: NCI-60 cell line screen, 48 h
SK-MEL-5 melanoma = tested on: SK-MEL-5 melanoma
OVCAR-3 ovarian = tested on: OVCAR-3 ovarian
NCI-H23 lung = tested on: NCI-H23 lung
A549 NSCLC = tested on: A549 NSCLC
LOX IMVI melanoma = tested on: LOX IMVI melanoma
SF-295 CNS = tested on: SF-295 CNS
SN12C renal = tested on: SN12C renal
SF-539 CNS = tested on: SF-539 CNS
UACC-257 melanoma = tested on: UACC-257 melanoma
SNB-75 CNS = tested on: SNB-75 CNS
K-562 leukemia = tested on: K-562 leukemia
T-47D breast = tested on: T-47D breast
UO-31 renal = tested on: UO-31 renal
SNB-19 CNS = tested on: SNB-19 CNS
786-0 renal = tested on: 786-0 renal
OVCAR-4 ovarian = tested on: OVCAR-4 ovarian
HCT-116 colon = tested on: HCT-116 colon
SK-OV-3 ovarian = tested on: SK-OV-3 ovarian
U251 CNS = tested on: U251 CNS
NCI-H522 lung = tested on: NCI-H522 lung
HL-60(TB) leukemia = tested on: HL-60(TB) leukemia
COLO 205 colon = tested on: COLO 205 colon
NCI-H460 lung = tested on: NCI-H460 lung
HCC-2998 colon = tested on: HCC-2998 colon
SW-620 colon = tested on: SW-620 colon
HOP-92 NSCLC = tested on: HOP-92 NSCLC
TK-10 renal = tested on: TK-10 renal
PC-3 prostate = tested on: PC-3 prostate
KM12 colon = tested on: KM12 colon
MDA-N = tested on: MDA-N
MDA-MB-435 = tested on: MDA-MB-435
UACC-62 melanoma = tested on: UACC-62 melanoma
SR leukemia = tested on: SR leukemia
DU-145 prostate = tested on: DU-145 prostate
BT-549 breast = tested on: BT-549 breast
CCRF-CEM leukemia = tested on: CCRF-CEM leukemia
M14 melanoma = tested on: M14 melanoma
MDA-MB-231 breast = tested on: MDA-MB-231 breast
OVCAR-5 ovarian = tested on: OVCAR-5 ovarian
HCT-15 colon = tested on: HCT-15 colon
SK-MEL-28 melanoma = tested on: SK-MEL-28 melanoma
SF-268 CNS = tested on: SF-268 CNS
EKVX NSCLC = tested on: EKVX NSCLC
IGROV1 ovarian = tested on: IGROV1 ovarian
MOLT-4 leukemia = tested on: MOLT-4 leukemia
HT29 colon = tested on: HT29 colon
OVCAR-8 ovarian = tested on: OVCAR-8 ovarian
MCF7 breast = tested on: MCF7 breast
HOP-62 NSCLC = tested on: HOP-62 NSCLC
RPMI-8226 leukemia = tested on: RPMI-8226 leukemia
NCI/ADR-RES ovarian = tested on: NCI/ADR-RES ovarian
ACHN renal = tested on: ACHN renal
HS 578T breast = tested on: HS 578T breast
SK-MEL-2 melanoma = tested on: SK-MEL-2 melanoma
NCI-H226 lung = tested on: NCI-H226 lung
A498 renal = tested on: A498 renal

Measured: TGI

CC(=O)NC(C)(C)C1CCC(C)=C(c2ccccc2)C1 (stereo not given)
68.4 µM: HOP-92 NSCLC
not listed: RPMI-8226 leukemia | NCI/ADR-RES ovarian | ACHN renal | HS 578T breast | SK-MEL-2 melanoma | NCI-H226 lung | A498 renal
> 100 µM: all other assays above

CC1(C)CCC(C)(C)C1C(=O)NC(O)C(=O)O (stereo not given)
not listed: OVCAR-3 ovarian | NCI-H23 lung | SF-295 CNS | UACC-257 melanoma | OVCAR-4 ovarian | NCI-H522 lung | HOP-92 NSCLC | KM12 colon | BT-549 breast | HT29 colon
> 100 µM: all other assays above
